# Patent US6455587B1 (priority 2000, dated 2002)
# Target: T1, recombinant HIV-1 protease (Human immunodeficiency virus type 1 group M subtype B, UniProt P04585)
# T1 construct: recombinant HIV-1 protease (final concentration 2.18 nM) purchased from Bachem Bioscience; purchased Bachem Bioscience
# Assay: Enzymatic fluorometric (FRET) assay for determining the inhibition constant (Ki) against HIV protease
# Format: biochemical
# Conditions: Ki (nM)
# From the text: An Enzymatic assay for determining the inhibition constant (Ki) of synthetic compounds targeting the HIV protease may be carried out as follows: This is a fluorometric assay based on the cleavage by protease of a substrate carrying a donor group (EDANS) and an acceptor group (DABCYL) on each side of the cleavage site, interacting together through fluorescence resonance energy transfer (FRET). Cleavage of the substrate by protease stops energy exchange between the two groups, resulting in a time-dependent increase in fluorescence intensity that is linearly related to the extent of substrate hydrolysis.
# The enzymatic assay is done at 31° C. in white 96-well fluorescence microplates, in a total volume of 200 μL per well. The apparatus used for analysis is a FL600 fluorescence microplate reader (Biotek Instruments). […] Excitation of the fluorophore is done at 340 nm and emission at 485 nm is recorded continuously during the reaction, allowing determination of the enzyme's initial velocity (v0). At the end of the 4 min incubation, the potential inhibitor at a defined concentration in a volume of 4 μL is added to the reaction, and fluorescence readings are taken for another 4 min, allowing determination of enzyme velocity (vi) in the presence of the inhibitory compound. Several concentrations of the putative inhibitors are tested in the assay. After calculation of v0 and vi, the inhibition constant (Ki) of the compound is determined using the equation of Henderson: [formula]
# and [I]=inhibitor concentration, [S]=substrate concentration,
# Km=Michaelis-Menten constant, Kiapp=apparent Ki
# Graphs are traced and the Ki determined using GraphPad Prism software v. 3.0.
row,Structure (SMILES),Ki
1,"Cc1ccc(S(=O)(=O)N(CC(C)C)C(CCCCN(CC(C)C)C(=O)CCc2ccccc2)C(=O)O)cc1 (racemic) [Compound 159, Nα, Nε-diisobutyl-Nα-(4-methylbenzenesulfonyl)-Nε-(3-phenylpropanoyl)-DL-lysine]",> 300 nM
2,"O=C(NCCCC[C@H](NC(=O)OCC1c2ccccc2-c2ccccc21)C(=O)O)OCC1c2ccccc2-c2ccccc21 [Compound 71, Nα,Nε-di-(9-Fluorenylmethoxycarbonyl)-L-lysine]",44800 nM
3,"Cc1ccc(S(=O)(=O)N(CC(C)C)C(CCCCNC(=O)OCC2c3ccccc3-c3ccccc32)C(=O)O)cc1 (racemic) [Compound 2, Nα-Isobutyl-Nα-(4-methylbenzenesulfonyl)-Nε-(9-fluorenylmethoxycarbonyl)-DL-lysine]",5 nM
4,"CC(C)CN([C@@H](CCCCNC(=O)OCC1c2ccccc2-c2ccccc21)C(=O)O)S(=O)(=O)c1ccc(C(C)(C)C)cc1 [Compound 10, Nα-Isobutyl-Nα-(4-tert-butylbenzenesulfonyl)-Nε-(9-fluorenylmethoxycarbonyl)-L-lysine]",257 nM

# Same assay, conditions: Ki (nM), fluorometric FRET assay, recombinant HIV-1 protease, pH 4.7, 31° C.
row,Structure (SMILES),Ki
1,"CC(C)CN([C@@H](CCCCNC(=O)C=Cc1ccc([N+](=O)[O-])cc1)C(=O)O)S(=O)(=O)c1ccc([N+](=O)[O-])cc1 [Compound 111, Nα-Isobutyl-Nα-(4-nitrobenzenesulfonyl)-Nε-(4-nitrocinnamoyl)-L-lysine]",34.4 nM

# Same assay, conditions: fluorometric FRET assay, 31° C., pH 4.7, recombinant HIV-1 protease 2.18 nM, substrate 10 μM; read-out: Ki
row,Structure (SMILES),Ki
1,"COc1ccc(CCC(=O)NCCCC[C@@H](C(=O)O)N(CC(C)C)S(=O)(=O)c2ccc(N)cc2)c(OC)c1 [Compound 196, Nα-Isobutyl-Nα-(4-aminobenzenesulfonyl)-Nε-(2,4-dimethoxydihydrocinnamoyl)-L-lysine]",17.1 nM
2,"COc1cc(CCC(=O)NCCCC[C@@H](C(=O)O)N(CC(C)C)S(=O)(=O)c2ccc(N)cc2)cc(OC)c1 [Compound 198, Nα-Isobutyl-Nα-(4-aminobenzenesulfonyl)-Nε-3,5-dimethoxydihydrocinnamoyl-L-lysine]",32.2 nM

# Same assay, conditions: fluorometric FRET assay, recombinant HIV-1 protease, pH 4.7, 31° C.; read-out: Ki
row,Structure (SMILES),Ki
1,"COc1cccc(C=CC(=O)NCCCC[C@@H](C(=O)O)N(CC(C)C)S(=O)(=O)c2ccc([N+](=O)[O-])cc2)c1 [Compound 162, Nα-Isobutyl-Nα-(4-nitrobenzenesulfonyl)-Nε-(3-methoxycinnamoyl)-L-lysine]",> 300 nM
2,"CC(C)CN(CCCC[C@H](NC(=O)OCC1c2ccccc2-c2ccccc21)C(=O)O)S(=O)(=O)c1ccc(Br)cc1 [Compound 21, Nα-(9-Fluorenylmethoxycarbonyl)-Nε-isobutyl-Nε-(4-bromobenzenesulfonyl)-L-lysine]",2000 nM
3,"O=C(N[C@@H](CCCCNS(=O)(=O)c1ccc2ccccc2c1)C(=O)O)OCC1c2ccccc2-c2ccccc21 [Compound 32, Nε-(2-Naphthalenesulfonyl)-Nα-(9-fluorenylmethoxycarbonyl)-L-lysine]",10000 nM
4,Cc1ccc(S(=O)(=O)N(CC(C)C)[C@@H](CCCCNC(=O)c2c[nH]c3ccccc23)C(=O)O)cc1 [Compound 87],> 1250 nM
5,"CC(C)CN([C@@H](CCCCNC(=O)OCc1ccccc1)C(=O)OCc1ccccc1)S(=O)(=O)c1ccc([N+](=O)[O-])cc1 [Compound 78, Nα-Isobutyl-Nα-(4-nitrobenzenesulfonyl)-Nε-benzyloxycarbonyl-L-lysine Benzyl Ester]",> 1250 nM
6,"CC(C)CN(C(CCCCNC(=O)OCc1ccccc1)C(=O)O)S(=O)(=O)c1ccc(I)cc1 (racemic) [Compound 48, Nα-Isobutyl-Nα-(4-iodobenzenesulfonyl)-Nε-benzyloxycarbonyl-DL-lysine]",> 100 nM
7,CC(C)(C)OC(=O)N[C@@H](CCCCNS(=O)(=O)c1ccc(Br)cc1)C(=O)O [Compound 143],660000 nM
8,"O=C(N[C@@H](CCCCNS(=O)(=O)Cc1ccccc1)C(=O)O)OCC1c2ccccc2-c2ccccc21 [Compound 33, Nε-Phenylmethylsulfonyl-Nα-(9-fluorenylmethoxycarbonyl)-L-lysine]",20000 nM
9,"Nc1ccccc1S(=O)(=O)N[C@@H](CCCCNC(=O)OCC1c2ccccc2-c2ccccc21)C(=O)O [Compound 105, Nα-(2-Aminobenzenesulfonyl)-Nε-(9-fluorenylmethoxycarbonyl)-L-lysine]",16000 nM
10,"Nc1ccc(S(=O)(=O)NCCCC[C@H](NC(=O)OCC2c3ccccc3-c3ccccc32)C(=O)O)cc1 [Compound 52, Nε-(4-Aminobenzenesulfonyl)-Nα-(9-fluorenylmethoxycarbonyl)-L-lysine]",6800 nM
11,CCC(CC)CN([C@@H](CCCCNC(=O)OCc1ccccc1)C(=O)OCc1ccccc1)S(=O)(=O)c1ccc(C)cc1 [Compound 80],> 1250 nM
12,"COc1cc(C=CC(=O)NCCCC[C@@H](C(=O)O)N(CC(C)C)S(=O)(=O)c2ccc([N+](=O)[O-])cc2)cc(OC)c1 [Compound 189, Nα-Isobutyl-Nα-(4-nitrobenzenesulfonyl)-Nε-(3,5-dimethoxycinnamoyl)-L-lysine]",108 nM
13,"CC(C)CN([C@@H](CCCCNC(=O)CCc1ccccc1)C(=O)O)S(=O)(=O)c1ccc(N)cc1 [Compound 158, Nα-Isobutyl-Nα-(4-aminobenzenesulfonyl)-Nε-dihydrocinnamoyl-L-lysine]",> 300 nM
14,"O=C(O)[C@H](CCCCNS(=O)(=O)c1ccc(Br)cc1)NC(=O)C(O)(c1ccccc1)c1ccccc1 [Compound 37, Nα-(Diphenylhydroxyacetyl)-Nε-(4-bromobenzenesulfonyl)-L-lysine]",54000 nM
15,"O=C(N[C@@H](CCCNS(=O)(=O)c1ccc([N+](=O)[O-])cc1)C(=O)O)OCC1c2ccccc2-c2ccccc21 [Compound 62, Nδ-(4-Nitrobenzenesulfonyl)-Nα-(9-fluorenylmethoxycarbonyl)-L-ornithine]",26200 nM
16,"COC(=O)[C@H](CCCCNC(=O)OCC1c2ccccc2-c2ccccc21)N(CC(C)C)S(=O)(=O)c1ccc(C)cc1 [Compound 123, Nα-Isobutyl-Nα-(4-methylbenzenesulfonyl)-Nε-(9-fluorenylmethoxycarbonyl)-L-lysine Methyl Ester]",> 300 nM
17,Cc1ccc(S(=O)(=O)N(CC(C)C)C(CCCCNC(=O)CC2c3ccccc3-c3ccccc32)C(=O)O)cc1 (centres unmarked) [Compound 84],89.7 nM
18,"Nc1ccc(S(=O)(=O)N[C@@H](CCCCNC(=O)OCC2c3ccccc3-c3ccccc32)C(=O)O)cc1 [Compound 106, Nα-(4-Aminobenzenesulfonyl)-Nε-(9-fluorenylmethoxycarbonyl)-L-lysine]",4490 nM
19,"O=C(O)[C@H](CCCN(Cc1ccc(F)cc1)S(=O)(=O)c1ccc(Br)cc1)NS(=O)(=O)c1ccc(Br)cc1 [Compound 59, Nα,Nδ-di-(4-Bromobenzenesulfonyl)-Nδ-(4-fluorobenzyl)-L-ornithine]",> 34900 nM
20,"CC(C)CN([C@@H](CCCCNC(=O)OCC1c2ccccc2-c2ccccc21)C(=O)O)S(=O)(=O)c1ccc(N)cc1 [Compound 44, Nα-(4-Aminobenzenesulfonyl)-Nα-isobutyl-Nε-(9-fluorenylmethoxycarbonyl)-L-lysine]",2.1 nM
21,"COc1cccc(C=CC(=O)NCCCC[C@@H](C(=O)O)N(CC(C)C)S(=O)(=O)c2ccc([N+](=O)[O-])cc2)c1OC [Compound 110, Nα-Isobutyl-Nα-(4-nitrobenzenesulfonyl)-Nε-(2,3-dimethoxycinnamoyl)-L-lysine]",> 300 nM
22,"CC1(C)[C@@H]2CC[C@@]1(CS(=O)(=O)NCCCC[C@H](NC(=O)OCC1c3ccccc3-c3ccccc31)C(=O)O)C(=O)C2 [Compound 35, Nε-(1S)-(10-Camphorsulfonyl)-Nα-(9-fluorenylmethoxycarbonyl)-L-lysine]",33000 nM
